Test results from publication PMC9090415, “Discovery of small molecule inhibitors of Plasmodium falciparum apicoplast DNA polymerase” (Journal of Enzyme Inhibition and Medicinal Chemistry, 2022).

Biological target: P. falciparum apicoplast DNA polymerase (Pf-apPOL) (Plasmodium falciparum, UniProt Q8ILY1)
Experiment: Fluorescence-based high-throughput DNA polymerase assay (molecular beacon), primary screen and dose-response
Assay type: biochemical
Details: for DNA Pol: 90 min, 10 µM; for IC50: supplemental file 2, sheet IC50 nontoxic compounds, Pf-apPOL
Outline: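 Single-point screening used 10 µM compound with 20 nM polymerase, 20 nM hairpin substrate and 6 µM dNTPs for 90 min at 25 °C. Confirmatory titrations (2.5–80 µM) followed fluorescence at three times, and IC50 was derived from a fit including a cooperativity term n.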

P. falciparum apicoplast DNA polymerase (Pf-apPOL), sequence (Q8ILY1 entry or part of it): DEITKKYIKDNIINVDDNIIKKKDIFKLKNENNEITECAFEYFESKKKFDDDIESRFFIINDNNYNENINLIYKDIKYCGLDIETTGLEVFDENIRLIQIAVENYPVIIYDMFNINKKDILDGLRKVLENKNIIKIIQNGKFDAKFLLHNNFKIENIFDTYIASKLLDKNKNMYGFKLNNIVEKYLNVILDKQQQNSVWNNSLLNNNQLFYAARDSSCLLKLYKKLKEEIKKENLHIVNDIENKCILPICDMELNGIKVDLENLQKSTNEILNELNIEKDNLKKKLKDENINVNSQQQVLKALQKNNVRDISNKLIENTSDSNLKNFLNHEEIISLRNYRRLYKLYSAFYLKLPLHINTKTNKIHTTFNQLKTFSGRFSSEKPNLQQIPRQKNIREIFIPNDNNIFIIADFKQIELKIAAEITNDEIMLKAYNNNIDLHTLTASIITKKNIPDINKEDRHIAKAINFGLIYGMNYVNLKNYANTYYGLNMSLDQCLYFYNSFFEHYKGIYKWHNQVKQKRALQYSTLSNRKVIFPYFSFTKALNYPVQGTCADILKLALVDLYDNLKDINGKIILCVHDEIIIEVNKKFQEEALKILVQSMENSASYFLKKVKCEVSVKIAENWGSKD

## C=CCOc1c(Br)cc(Br)cc1/C=C1\SC(=N)NC1=O [KU0051640]
'DNA Pol' of the 186 hits list (screen value)
  DNA Pol: 26
DRC-1, conc 2.5
  % inhibition Apo pol 10': 4.163%
  % inhibition Apol 90': 2.139%
  % inhibition apPOL 180': -0.2194%
DRC-1, conc 5
  % inhibition Apo pol 10': -1.099%
  % inhibition Apol 90': -4.076%
  % inhibition apPOL 180': -7.333%
DRC-1, conc 10
  % inhibition Apo pol 10': 11.4088%
  % inhibition Apol 90': 7.3276%
  % inhibition apPOL 180': 0.9345%
DRC-1, conc 20
  % inhibition Apo pol 10': 46.0852%
  % inhibition Apol 90': 38.2187%
  % inhibition apPOL 180': 26.8822%
DRC-1, conc 40
  % inhibition Apo pol 10': 88.1194%
  % inhibition Apol 90': 86.7215%
  % inhibition apPOL 180': 86.6627%
DRC-1, conc 80
  % inhibition Apo pol 10': 94.2659%
  % inhibition Apol 90': 95.0722%
  % inhibition apPOL 180': 95.6515%
DRC-2, 5', conc 2.5
  % inhibition Apo pol 5': 11%
DRC-2, 5', conc 5
  % inhibition Apo pol 5': 7%
DRC-2, 5', conc 10
  % inhibition Apo pol 5': 20%
DRC-2, 5', conc 20
  % inhibition Apo pol 5': 43%
DRC-2, 5', conc 40
  % inhibition Apo pol 5': 54%
DRC-2, 5', conc 80
  % inhibition Apo pol 5': 54%
DRC-2, 5', concentration 5
  % inhibition Apo pol 5': 7%
DRC-2, 5', concentration 40
  % inhibition Apo pol 5': 54%
DRC-2, 5', concentration 80
  % inhibition Apo pol 5': 54%
DRC-2, 40', conc 2.5
  % inhibition Apol 40': 12%
DRC-2, 40', conc 5
  % inhibition Apol 40': 7%
DRC-2, 40', conc 10
  % inhibition Apol 40': 24%
DRC-2, 40', conc 20
  % inhibition Apol 40': 54%
DRC-2, 40', conc 40
  % inhibition Apol 40': 72%
DRC-2, 40', conc 80
  % inhibition Apol 40': 75%
DRC-2, 40', concentration 2.5
  % inhibition Apol 40': 12%
DRC-2, 40', concentration 5
  % inhibition Apol 40': 7%
DRC-2, 40', concentration 20
  % inhibition Apol 40': 54%
DRC-2, conc 2.5
  % inhibition ApPOL 90': 12%
  % inhibition apPOL 180': 9%
DRC-2, conc 5
  % inhibition ApPOL 90': 6.55%
  % inhibition apPOL 180': 4%
DRC-2, conc 10
  % inhibition ApPOL 90': 23%
  % inhibition apPOL 180': 17%
DRC-2, conc 20
  % inhibition ApPOL 90': 56%
  % inhibition apPOL 180': 49%
DRC-2, conc 40
  % inhibition ApPOL 90': 76%
  % inhibition apPOL 180': 76%
DRC-2, conc 80
  % inhibition ApPOL 90': 79%
  % inhibition apPOL 180': 81%
DRC-2, concentration 2.5
  % inhibition ApPOL 90': 12%
DRC-2, concentration 40
  % inhibition ApPOL 90': 76%
  % inhibition apPOL 180': 76%
Primary screen value, "DNA Pol"
  DNA Pol: 26

## COCCN(CCOC)Cc1c(O)ccc2c1OC(=Cc1cc(Br)ccc1OC)C2=O [KU0198471]
'DNA Pol' of the 186 hits list (primary screen result), unit not given
  DNA Pol: 63
DRC-1, concentration 2.5
  % inhibition Apo pol 10': -2.842%
  % inhibition Apol 90': 0.2446%
  % inhibition apPOL 180': 3.8606%
DRC-1, concentration 5
  % inhibition Apo pol 10': 2.517%
  % inhibition Apol 90': 8.305%
  % inhibition apPOL 180': 14.5947%
DRC-1, concentration 10
  % inhibition Apo pol 10': 15.0312%
  % inhibition Apol 90': 20.0345%
  % inhibition apPOL 180': 28.8657%
DRC-1, concentration 20
  % inhibition Apo pol 10': 43.5523%
  % inhibition Apol 90': 57.0182%
  % inhibition apPOL 180': 74.003%
DRC-1, concentration 40
  % inhibition Apo pol 10': 79.9378%
  % inhibition Apol 90': 88.9313%
  % inhibition apPOL 180': 99.2826%
DRC-1, concentration 80
  % inhibition Apo pol 10': 100.142%
  % inhibition Apol 90': 100.102%
  % inhibition apPOL 180': 101.453%
DRC-2, 5', concentration 2.5 (unit not given)
  % inhibition Apo pol 5': 10%
DRC-2, 40', concentration 2.5 (unit not given)
  % inhibition Apol 40': 10%
DRC-2, 5', concentration 2.5
  % inhibition Apo pol 5': 10%
DRC-2, 5', concentration 5
  % inhibition Apo pol 5': 10%
DRC-2, 5', concentration 5 (unit not given)
  % inhibition Apo pol 5': 10%
DRC-2, 5', concentration 10
  % inhibition Apo pol 5': 33%
DRC-2, 5', concentration 20
  % inhibition Apo pol 5': 48%
DRC-2, 5', concentration 40
  % inhibition Apo pol 5': 59%
DRC-2, 5', concentration 80
  % inhibition Apo pol 5': 60%
DRC-2, 40', concentration 2.5
  % inhibition Apol 40': 10%
DRC-2, 40', concentration 5
  % inhibition Apol 40': 6%
DRC-2, 40', concentration 10
  % inhibition Apol 40': 36%
DRC-2, 40', concentration 20
  % inhibition Apol 40': 53%
DRC-2, 40', concentration 40
  % inhibition Apol 40': 73%
DRC-2, 40', concentration 80
  % inhibition Apol 40': 79%
DRC-2, concentration 2.5
  % inhibition ApPOL 90': 10%
  % inhibition apPOL 180': 4.6%
DRC-2, concentration 2.5 (unit not given)
  % inhibition ApPOL 90': 10%
DRC-2, concentration 5
  % inhibition ApPOL 90': -0.305%
  % inhibition apPOL 180': -68%
DRC-2, concentration 10
  % inhibition ApPOL 90': 34%
  % inhibition apPOL 180': 25%
DRC-2, concentration 20
  % inhibition ApPOL 90': 52%
  % inhibition apPOL 180': 41%
DRC-2, concentration 40
  % inhibition ApPOL 90': 75%
  % inhibition apPOL 180': 72%
DRC-2, concentration 80
  % inhibition ApPOL 90': 82%
  % inhibition apPOL 180': 85%
Primary screen value of the library well, unit not given
  DNA Pol: 63

## O=C(Nc1cccc(Cl)c1)Nc1nnc(-c2ccncc2)s1 [KU0022348]
DRC-1, concentration 2.5
  % inhibition Apo pol 10': 12.66%
  % inhibition Apol 90': 6.139%
  % inhibition apPOL 180': 0.3318%
DRC-1, concentration 5
  % inhibition Apo pol 10': -6.2957%
  % inhibition Apol 90': -8.679%
  % inhibition apPOL 180': -11.6465%
DRC-1, concentration 10
  % inhibition Apo pol 10': 19.819%
  % inhibition Apol 90': 12.9186%
  % inhibition apPOL 180': 5.454%
DRC-1, concentration 20
  % inhibition Apo pol 10': 75.3838%
  % inhibition Apol 90': 70.4338%
  % inhibition apPOL 180': 60.8254%
DRC-1, concentration 40
  % inhibition Apo pol 10': 88.0392%
  % inhibition Apol 90': 84.2961%
  % inhibition apPOL 180': 80.4807%
DRC-1, concentration 80
  % inhibition Apo pol 10': 86.8157%
  % inhibition Apol 90': 86.1912%
  % inhibition apPOL 180': 84.4697%
DRC-2, 5', concentration 2.5
  % inhibition Apo pol 5': 16%
DRC-2, 5', concentration 5
  % inhibition Apo pol 5': 32%
DRC-2, 5', concentration 10
  % inhibition Apo pol 5': 46%
DRC-2, 5', concentration 20
  % inhibition Apo pol 5': 47%
DRC-2, 5', concentration 40
  % inhibition Apo pol 5': 48%
DRC-2, 5', concentration 80
  % inhibition Apo pol 5': 40%
DRC-2, 40', concentration 2.5
  % inhibition Apol 40': 18%
DRC-2, 40', concentration 5
  % inhibition Apol 40': 42%
DRC-2, 40', concentration 10
  % inhibition Apol 40': 64%
DRC-2, 40', concentration 20
  % inhibition Apol 40': 66%
DRC-2, 40', concentration 40
  % inhibition Apol 40': 71%
DRC-2, 40', concentration 80
  % inhibition Apol 40': 57%
DRC-2, concentration 2.5
  % inhibition ApPOL 90': 16%
  % inhibition apPOL 180': 6%
DRC-2, concentration 5
  % inhibition ApPOL 90': 41%
  % inhibition apPOL 180': 30%
DRC-2, concentration 10
  % inhibition ApPOL 90': 65%
  % inhibition apPOL 180': 58%
DRC-2, concentration 20
  % inhibition ApPOL 90': 67%
  % inhibition apPOL 180': 60%
DRC-2, concentration 40
  % inhibition ApPOL 90': 73%
  % inhibition apPOL 180': 70%
DRC-2, concentration 80
  % inhibition ApPOL 90': 64%
  % inhibition apPOL 180': 65%
conc. 2.5, 5', DRC-2
  % inhibition Apo pol 5': 16%
conc. 2.5, DRC-2
  % inhibition ApPOL 90': 16%
conc. 10, 40', DRC-2
  % inhibition Apol 40': 64%
conc. 10, DRC-2
  % inhibition ApPOL 90': 65%
conc. 80, DRC-2
  % inhibition ApPOL 90': 64%
  % inhibition apPOL 180': 65%
Primary screen value by plate and well
  DNA Pol: 61
Primary screen value of the 186 hits, unit not given
  DNA Pol: 61

## CCOc1ccccc1-c1nc(-c2ccc(=O)[nH]c2)no1 [Molecule 76]
  IC50: 38.7 µM

## O=c1cc(-c2ccccc2)oc2c(O)c(O)ccc12 [Molecule 84]
  IC50: 32.2 µM

## C=CC1=C(C)c2cc3[nH]c(cc4nc(cc5[nH]c(cc1n2)c(C)c5CCC(=O)O)C(CCC(=O)O)=C4C)c(C)c3C=C [Molecule 91]
  IC50: < 2.5 µM
